{"source": "patent US7169815B2", "about": "“3-methoxybenzyl thiourea derivatives and improved lipid compositions containing same” (The United States of America as represented by the …, priority 2000, dated 2007)", "key": {"[1]": {"assay": "Solubility in refined meadowfoam seed oil (HPLC)", "format": "physicochemical", "conditions": "oil or lipid, thermodynamic from solid, cooled to room temperature overnight", "procedure": "Typical retention times were 7–9 min for the thioureas. Samples were weighed accurately (about 0.1 g) into 1.00 g of refined meadowfoam seed oil and heated to temperature (either 30° C. or 50° C.) for 4 h with occasional shaking. The samples were cooled to room temperature overnight, centrifuged and 0.3 g of the supernatant oil was removed and diluted with 1 ml CHCl3 for testing."}, "[2]": {"assay": "Decomposition temperature by differential scanning calorimetry", "format": "physicochemical", "conditions": "DSC, onset of decrease in slope of temperature-heat flow curve; unit not given (scans in ° C.)", "procedure": "A dual cell Perkin Elmer differential scanning calorimeter (PE DSC 7, Norwalk, Conn.) was used to determine the thermal transitions of the compounds. All scans were carried out from 30° C. to 200° C. at a heating and cooling rate of 10° C./minute and 40° C./min, respectively, except for 1-(3-methoxybenzyl)-3-(1-propenyl) thiourea, for which the scans were carried out from 0° C. to 200° C. at a heating rate of 10° C./min, and 1-(3-methoxybenzyl)-3-octadecyl thiourea, for which both the heating and cooling rates were 10° C./min. 1,3-di(3-methoxybenzyl) thiourea and 1-(3-methoxybenzyl)-3-dodecyl thiourea were heated to 300° C., and 1-(3-methoxybenzyl)-3-(4-methoxybenzoyl) thiourea was heated to 250° C. to determine the decomposition temperature. The decomposition temperature was taken as the onset of a decrease in the slope of the temperature-heat flow DSC curve. The first heating curve was recorded in all cases, and liquid nitrogen was used to quench the samples after the first heating."}, "[3]": {"tested_on": "Brine Shrimp (Artemia Salina)", "assay": "in vivo", "conditions": "as Table 7 shows", "procedure": "(§1) Brine shrimp eggs (Artemia salina) were obtained from Brine Shrimp Direct, Ogden, Utah and stored at 10° C. until used. Eggs (400 mg) were added to 1 l of deionized water containing 40 g of sea salts (Sigma Chemical Co., St. Louis, Mo.).\n(§2) Serial dilutions were performed in 100 μl of seawater in triplicate in the wells of a 96-well microplate to give appropriate concentrations. Control wells for both water and DMSO were included with each experiment. […] The number of non-motile, and the total number of, naupli were counted in each well using a binocular microscope (10×)."}, "in vivo": {"assay": "in vivo", "conditions": "Artemia salina (brine shrimp), in vivo, other: exposure in seawater in microplate wells", "procedure": "as §1, §2"}, "[4]": {"assay": "Behaviour on addition of water to DMSO solution (sample preparation)", "format": "physicochemical", "conditions": "dissolved in 50 μl DMSO, water added to make 1 mg/ml", "procedure": "Test compounds (1–2 mg) were originally made up at a concentration of 1 mg/ml in artificial seawater, except for water insoluble compounds, which were dissolved in 50 μl of dimethyl sulfoxide (DMSO) prior to adding enough water to make a 1 mg/ml solution. Serial dilutions were performed in 100 μl of seawater in triplicate in the wells of a 96-well microplate to give appropriate concentrations. Control wells for both water and DMSO were included with each experiment. A 100 μl solution of naupli (10–30) was added to each well, and the covered plate was incubated for 24 h at 27° C. The number of non-motile, and the total number of, naupli were counted in each well using a binocular microscope (10×). LC50 values were then calculated by Probit analysis (Finney, D. J., 1971, “Probit Analysis,” 3rd Ed.; University Press: Cambridge [Eng.])."}, "[5]": {"assay": "UVB and UVA molar absorptivities in chloroform", "format": "physicochemical", "conditions": "0.01 mg/ml in chloroform", "procedure": "The compounds synthesized in Example 3 were tested to determine their ability to absorb […] UVA light. UV spectra of quantitatively weighed and diluted samples (0.01 mg/ml) in chloroform were scanned from 244–450 nm at 240 nm/min on a Beckman DU 640 spectrophotometer (Beckman Coulter, Inc., Fullerton, Calif.). Amax in the 280–320 nm range was determined and converted to molar absorptivity for the UVB region, and Amax in the 320–400 nm range was determined and converted to molar absorptivity for the UVA region."}, "[6]": {"assay": "Oxidative Stability by Rotating Pressure Vessel (RBOT) of refined meadowfoam seed oil plus thiourea compounds", "text": "Another presently preferred method of determining oxidative stability of lipids and oils employs the Oxidative Stability by Rotating Pressure Vessel (RBOT) test. In this test, oxidative stability, determined according to the ASTM D2272-98 test method (ASTM, 2001, “Standard Test Method for Oxidation Stability of Steam Turbine Oils by Rotating Pressure Vessel,” in Book of Standards, Vol. 05.01., American Society for Testing and Materials, West Conshohocken, Pa.), measures the time for oxygen pressure to decrease in a closed stainless steel vessel containing a lipid or oil when heated with a copper coil catalyst. Oxygen taken up by the lipid or oil during the reaction is an indication of oil degradation.\nIn these experiments, Oxidative Stability by Rotating Pressure Vessel (RBOT) tests were performed with different 3-methoxybenzyl thiourea compounds synthesized in Example 3 that were mixed in different quantities with different mono- and polyunsaturated vegetable oils. Hexane was used to clean and store the copper coils, but all other aspects of the Oxidative Stability by Rotating Pressure Vessel (RBOT) test were the same as in the standard ASTM D2272–98 test method (ASTM, 2001, “Standard Test Method for Oxidation Stability of Steam Turbine Oils by Rotating Pressure Vessel,” in Book of Standards, Vol. 05.01., American Society for Testing and Materials, West Conshohocken, Pa.)."}}, "note": "Read-outs that look alike come from different tables or passages of the source.", "data": [{"smiles": "CCCCCCCCNC(=S)NCc1cccc(OC)c1", "note": "[1-(3-methoxybenzyl)-3-octyl thiourea]", "values": [{"measurement": "solubility at 4 h", "setting": "[1]; heated to 30° C. for 4 h, read-out: Solubility at 30° C.", "result": 3070, "unit": "µg/mL"}, {"measurement": "solubility at 4 h", "setting": "[1]; heated to 50° C. for 4 h, read-out: Solubility at 50° C.", "result": 2490, "unit": "µg/mL"}, {"measurement": "Decomposition Temperature", "setting": "[2]", "result": "> 200", "unit": "°C"}, {"measurement": "toxicity against brine shrimp, in words", "setting": "[3]", "result": "low toxicity"}, {"measurement": "LC50 at 24 h", "setting": "in vivo", "result": 240, "unit": "µg/mL"}, {"measurement": "behaviour upon the addition of water", "setting": "[4]", "result": "precipitated out of solution"}, {"measurement": "UVBMAX Molar Absorptivity", "setting": "[5]; Amax in 280–320 nm", "result": 2999}, {"measurement": "UVAMAX Molar Absorptivity", "setting": "[5]; Amax in 320–400 nm", "result": 0.0}, {"measurement": "Oxidative Stability (RBOT)", "setting": "[6]; Refined Meadowfoam Seed Oil plus 0.1% compound", "result": 43, "unit": "min"}, {"measurement": "Oxidative stability in the RBOT test, in words", "setting": "[6]; addition of 0.1% compound", "result": "doubled"}]}]}
